For 1 molecule, Ki results are on record in PMC3323305 (2011).

The assay addresses 18-kDa Translocator Protein (TSPO) (Homo sapiens, UniProt P30536, T147A). Description: radioligand competition against [3H]PK11195 in human platelet membranes. The format is binding.

SMILES strings stand for the structures.

18-kDa Translocator Protein (TSPO), sequence (P30536 2-169 T147A): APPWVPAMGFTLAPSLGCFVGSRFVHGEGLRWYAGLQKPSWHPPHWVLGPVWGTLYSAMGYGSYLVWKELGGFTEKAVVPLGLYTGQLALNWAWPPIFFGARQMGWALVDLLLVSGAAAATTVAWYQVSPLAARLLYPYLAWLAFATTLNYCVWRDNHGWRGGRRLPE

`COc1ccccc1CN(C(C)=O)c1cnccc1Oc1ccccc1` [PBR28] displayed an inhibitory constant (Ki) of 2.17 ± 0.17 nM.
